US11780826B2 (Amgen Inc., priority 2017, dated 2023)

The compounds below were run on Bovine cardiac myofibrils (assay: In vitro model of dose-dependent myofibril ATPase modulation (AC1.4, pyruvate kinase/lactate dehydrogenase-coupled ATPase assay at pCa25)). Details: concentration at which ATPase activity was 1.4-fold higher than the bottom of the dose curve, mean of a minimum of two independent tests.
Format: biochemical
Outline: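 Absorbance at 340 nm tracked ATP hydrolysis through pyruvate kinase/lactate dehydrogenase coupling (0.5 mM NADH, 1.5 mM PEP). Myofibrils from detergent-homogenized bovine heart, 1 mM ATP, pH 6.80, EGTA/CaCl2 buffering. Dose-response curves fitted with a four-parameter Hill equation.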
In the case of `CCS(=O)(=O)c1cccc(C(=O)N2[C@@H](C(=O)N[C@@H](c3ccc(C(F)(F)F)cc3F)C3(O)CC3)C[C@H]3C[C@H]32)c1` [Example 382, (1R,3R,5R)-2-(3-(ethylsulfonyl)benzoyl)-N-((S)-(2-fluoro-4-(trifluoromethyl)phenyl)(1-hydroxycyclopropyl)methyl)-2-azabicyclo[3.1.0]hexane-3-carboxamide], the AC1.4 is reported as 1.232 µM.
For `CCNc1cnc(C)cc1C(=O)N1[C@@H](C(=O)N[C@@H](c2ccc(C(F)(F)F)cc2F)C2CC2)C[C@H]2C[C@H]21` [Example 383, (1R,3R,5R)-N-((R)-cyclopropyl(2-fluoro-4-(trifluoromethyl)phenyl)methyl)-2-((5-(ethylamino)-2-methyl-4-pyridinyl)carbonyl)-2-azabicyclo[3.1.0]hexane-3-carboxamide], the AC1.4 was 1.2725 µM.
`O=C(NCc1ccc(C(F)(F)F)cc1)[C@H]1CCCN1C(=O)[C@H]1CCCN(S(=O)(=O)N2CC[C@H](C(F)(F)F)C2)C1` [Example 384, N-(4-(trifluoromethyl)benzyl)-1-(((3S)-1-(((3S)-3-(trifluoromethyl)-1-pyrrolidinyl)sulfonyl)-3-piperidinyl)carbonyl)-D-prolinamide] gave an AC1.4 of 1.295 µM.
`N#CC1CN(S(=O)(=O)c2cccc(C(=O)N3CCC[C@@H]3C(=O)N[C@@H](CO)c3cccc(C(F)(F)F)c3)c2)C1` [Example 386, 1-(3-((3-cyano-1-azetidinyl)sulfonyl)benzoyl)-N-((1R)-2-hydroxy-1-(3-(trifluoromethyl)phenyl)ethyl)-D-prolinamide] showed an AC1.4 of 1.3335 µM.
With `COc1cc(CNC(=O)[C@H]2CCCN2C(=O)[C@H]2CCCN(S(=O)(=O)N3CC(C#N)C3)C2)ccc1C` [Example 387, 1-(((3S)-1-((3-cyano-1-azetidinyl)sulfonyl)-3-piperidinyl)carbonyl)-N-(3-methoxy-4-methylbenzyl)-D-prolinamide] the AC1.4 was 1.34 µM.
`COC[C@H](NC(=O)[C@H]1CCCN1C(=O)[C@H]1CCCN(S(=O)(=O)N2CC(C#N)C2)C1)c1cccc(C(F)(F)F)c1` [Example 388, 1-(((3S)-1-((3-cyano-1-azetidinyl)sulfonyl)-3-piperidinyl)carbonyl)-N-((1R)-2-methoxy-1-(3-(trifluoromethyl)phenyl)ethyl)-D-prolinamide,1-(((3S)-1-((3-cyano-1-azetidinyl)sulfonyl)-3-piperidinyl)carbonyl)-N-((1S)-2-methoxy-1-(3-(trifluoromethyl)phenyl)ethyl)-D-prolinamide] gave an AC1.4 of 1.3405 µM.
`CCS(=O)(=O)c1cc(C(=O)N2[C@@H](C(=O)N[C@@H](c3cc(F)c(Cl)cc3F)C3CC3)C[C@H]3C[C@H]32)ccn1` [Example 389, (1R,3R,5R)-N-((R)-(4-chloro-2,5-difluorophenyl)(cyclopropyl)methyl)-2-((2-(ethylsulfonyl)-4-pyridinyl)carbonyl)-2-azabicyclo[3.1.0]hexane-3-carboxamide] was tested, and the AC1.4 was 1.2325 µM.
`N#CC1CN(S(=O)(=O)N2CCC[C@H](C(=O)N3CCC[C@@H]3C(=O)NCc3cc(Cl)cc(Cl)c3)C2)C1` [Example 390, 1-(((3S)-1-((3-cyano-1-azetidinyl)sulfonyl)-3-piperidinyl)carbonyl)-N-(3,5-dichlorobenzyl)-D-prolinamide] was tested, and the AC1.4 was 1.3495 µM.
`C[C@@H](NC(=O)[C@H]1CCCN1C(=O)[C@H]1CCCN(S(=O)(=O)N2CC(C#N)C2)C1)c1cc(F)cc(F)c1` [Example 391, 1-(((3S)-1-((3-cyano-1-azetidinyl)sulfonyl)-3-piperidinyl)carbonyl)-N-((1R)-1-(3,5-difluorophenyl)ethyl)-D-prolinamide] gave an AC1.4 of 1.3505 µM.
In the case of `O=C(N[C@@H](c1ccc(C(F)(F)F)cc1F)C1COC1)[C@H]1C[C@H]2C[C@H]2N1C(=O)c1ccnc(C(F)(F)F)c1` [Example 392, (1R,3R,5R)-N-((R)-(2-fluoro-4-(trifluoromethyl)phenyl)(3-oxetanyl)methyl)-2-((2-(trifluoromethyl)-4-pyridinyl)carbonyl)-2-azabicyclo[3.1.0]hexane-3-carboxamide], the AC1.4 is reported as 1.268 µM.
`CS(=O)(=O)c1cc(C(=O)N2C[C@H]3C[C@H]3[C@@H]2C(=O)N[C@@H](c2cc(F)c(Cl)cc2F)C2CC2)ccn1` [Example 393, (1R,2R,5S)-N-((R)-(4-chloro-2,5-difluorophenyl)(cyclopropyl)methyl)-3-((2-(methylsulfonyl)-4-pyridinyl)carbonyl)-3-azabicyclo[3.1.0]hexane-2-carboxamide] gave an AC1.4 of 1.3425 µM.
Work on `N#CC1CN(S(=O)(=O)N2CCC[C@H](C(=O)N3CCC[C@@H]3C(=O)NCc3cc(F)ccc3F)C2)C1` [Example 394, 1-(((3S)-1-((3-cyano-1-azetidinyl)sulfonyl)-3-piperidinyl)carbonyl)-N-(2,5-difluorobenzyl)-D-prolinamide] yielded an AC1.4 of 1.3725 µM.
`CCS(=O)(=O)c1cccc(C(=O)N2[C@@H](C(=O)N[C@@H](c3cc(F)c(Cl)cc3F)[C@H](C)O)C[C@H]3C[C@H]32)c1` [Example 395, (1R,3R,5R)-N-((1S,2S)-1-(4-chloro-2,5-difluorophenyl)-2-hydroxypropyl)-2-(3-(ethylsulfonyl)benzoyl)-2-azabicyclo[3.1.0]hexane-3-carboxamide] was tested, and the AC1.4 was 1.361 µM.
`N#CC1CN(S(=O)(=O)c2cccc(C(=O)N3CCC[C@@H]3C(=O)NCc3ccccc3Cl)c2)C1` [Example 396, N-(2-chlorobenzyl)-1-((3-((3-cyano-1-azetidinyl)sulfonyl)phenyl)carbonyl)-D-prolinamide] gave an AC1.4 of 1.3975 µM.
`O=C(N[C@@H](c1cc(F)c(Cl)cc1F)C1CC1)[C@H]1C[C@@H](O)CN1C(=O)c1ccnc(C(F)(F)F)c1` [Example 397, (4R)-N-((R)-(4-chloro-2,5-difluorophenyl)(cyclopropyl)methyl)-4-hydroxy-1-((2-(trifluoromethyl)-4-pyridinyl)carbonyl)-D-prolinamide] gave an AC1.4 of 1.361 µM.
`O=C(NCc1ccc(C(F)(F)F)cc1)[C@H]1CCCN1C(=O)[C@H]1CCCN(S(=O)(=O)N2CC(c3cccc(Cl)c3)C2)C1` [Example 398, 1-(((3S)-1-((3-(3-chlorophenyl)-1-azetidinyl)sulfonyl)-3-piperidinyl)carbonyl)-N-(4-(trifluoromethyl)benzyl)-D-prolinamide] was tested, and the AC1.4 was 1.4045 µM.
Work on `O=C(N[C@@H](c1cc(F)c(Cl)cc1F)C1COC1)[C@H]1C[C@@H](O)CN1C(=O)c1ccnc(C(F)(F)F)c1` [Example 399, (4R)-N-((R)-(4-chloro-2,5-difluorophenyl)(3-oxetanyl)methyl)-4-hydroxy-1-((2-(trifluoromethyl)-4-pyridinyl)carbonyl)-D-prolinamide] yielded an AC1.4 of 1.4045 µM.
Compound `N#CC1CN(S(=O)(=O)N2CCC[C@H](C(=O)N3CCC[C@@H]3C(=O)NCc3cnc(C(F)(F)F)nc3)C2)C1` [Example 400, 1-(((3S)-1-((3-cyano-1-azetidinyl)sulfonyl)-3-piperidinyl)carbonyl)-N-((2-(trifluoromethyl)-5-pyrimidinyl)methyl)-D-prolinamide] has an AC1.4 of 1.4048 µM.
Work on `CS(=O)(=O)c1cccc(C(=O)N2CC=C[C@@H]2C(=O)N[C@@H](c2ccc(C(F)(F)F)cc2F)C2CC2)c1` [Example 401, (2R)-N-((R)-cyclopropyl(2-fluoro-4-(trifluoromethyl)phenyl)methyl)-1-(3-(methylsulfonyl)benzoyl)-2,5-dihydro-1H-pyrrole-2-carboxamide] yielded an AC1.4 of 1.378 µM.
In the case of `CCS(=O)(=O)c1cccc(C(=O)N2[C@@H](C(=O)N[C@@H](c3ccc(Cl)cc3)C3COC3)C[C@H]3C[C@H]32)c1` [Example 403, (1R,3R,5R)-N-((R)-(4-chlorophenyl)(3-oxetanyl)methyl)-2-(3-(ethylsulfonyl)benzoyl)-2-azabicyclo[3.1.0]hexane-3-carboxamide], the AC1.4 is reported as 1.4025 µM.
With `N#CC1CN(S(=O)(=O)N2CCC[C@H](C(=O)N3CCC[C@@H]3C(=O)N[C@H](CO)c3cccc(C(F)(F)F)c3)C2)C1` [Example 404, 1-(((3S)-1-((3-cyano-1-azetidinyl)sulfonyl)-3-piperidinyl)carbonyl)-N-((1S)-2-hydroxy-1-(3-(trifluoromethyl)phenyl)ethyl)-D-prolinamide] the AC1.4 was 1.4525 µM.
`C[C@H](O)[C@@H](NC(=O)[C@H]1C[C@H]2C[C@H]2N1C(=O)c1cccc(S(C)(=O)=O)c1)c1cc(F)c(Cl)cc1F` [Example 405, (1R,3R,5R)-N-((1S,2S)-1-(4-chloro-2,5-difluorophenyl)-2-hydroxypropyl)-2-(3-(methylsulfonyl)benzoyl)-2-azabicyclo[3.1.0]hexane-3-carboxamide] gave an AC1.4 of 1.4065 µM.
`N#CC1CN(S(=O)(=O)N2CCC[C@H](C(=O)N3CCC[C@@H]3C(=O)NCc3cccc(Cl)c3F)C2)C1` [Example 406, N-(3-chloro-2-fluorobenzyl)-1-(((3S)-1-((3-cyano-1-azetidinyl)sulfonyl)-3-piperidinyl)carbonyl)-D-prolinamide] was tested, and the AC1.4 was 1.4675 µM.
Compound `CS(=O)(=O)c1cccc(C(=O)N2C[C@H]3C[C@H]3[C@@H]2C(=O)N[C@@H](c2ccc(C(F)(F)F)cc2F)C2CC2)c1` [Example 407, (1R,2R,5S)-N-((R)-cyclopropyl(2-fluoro-4-(trifluoromethyl)phenyl)methyl)-3-(3-(methylsulfonyl)benzoyl)-3-azabicyclo[3.1.0]hexane-2-carboxamide] has an AC1.4 of 1.427 µM.
With `CN(C)S(=O)(=O)c1cccc(C(=O)N2CCC[C@@H]2C(=O)N[C@H](c2ccc(Cl)c(F)c2)C2CC2)c1` [Example 408, N-((S)-(4-chloro-3-fluorophenyl)(cyclopropyl)methyl)-1-(3-(dimethylsulfamoyl)benzoyl)-D-prolinamide] the AC1.4 was 1.479 µM.
Compound `O=C(N[C@@H](c1ccc(C(F)(F)F)cc1F)C1COC1)[C@H]1C[C@H]2C[C@H]2N1C(=O)c1cc(C(F)(F)F)ccn1` [Example 409, (1R,3R,5R)-N-((R)-(2-fluoro-4-(trifluoromethyl)phenyl)(3-oxetanyl)methyl)-2-((4-(trifluoromethyl)-2-pyridinyl)carbonyl)-2-azabicyclo[3.1.0]hexane-3-carboxamide] has an AC1.4 of 1.484 µM.
